Paper PMC6618047 (Clinical Pharmacology in Drug Development, 2018)
Read-outs that look alike come from different tables or passages of the source. Values belong to the compound of their own block, whether it stands above or below them.

Key:
[1] = early phase 1 and 2 studies, no reference given; cited from earlier work
[2] = for AUC(0-inf) / AUC(0-t) / Cmax / Tmax / half-life: plasma, single oral dose, healthy subjects; for AUC(0-inf): AUCinf; for AUC(0-inf) / AUC(0-t) / Cmax / Tmax / half-life / Fed:Fasted GMR (90% CI) AUCinf / Fed:Fasted GMR (90% CI) Cmax: ertugliflozin 15-mg/sitagliptin 100-mg FDC tablet; for AUC(0-t): AUClast; for Tmax: median (range); for half-life: t1/2, arithmetic mean ± SD; for Fed:Fasted GMR (90% CI) AUCinf / Fed:Fasted GMR (90% CI) Cmax: adjusted geometric mean ratio fed:fasted
[3] = high solubility and high permeability; no reference given; cited from earlier work
[4] = for AUC(0-inf): AUCinf; for AUC(0-t): AUClast; for Fed:Fasted GMR (90% CI) AUCinf / Fed:Fasted GMR (90% CI) Cmax: adjusted geometric mean ratio fed:fasted
[5] = Food-effect pharmacokinetic study of ertugliflozin 15-mg tablet; details: for AUC(0-t): AUClast
[6] = Summary across the 3 food-effect studies; type: in vivo, human
[7] = cited from earlier work
[8] = metformin 850 mg alone; cited from earlier work
[9] = sitagliptin monotherapy, cited from earlier work
[10] = both, human, po, geometric mean (geometric %CV), fasted
[11] = both, human, po, geometric mean (geometric %CV), fed (high-fat breakfast)
[12] = both, human, po, fed (high-fat breakfast)
[13] = both, human, plasma, po, arithmetic mean ± SD, ertugliflozin 7.5-mg/metformin 1000-mg FDC tablet, single oral dose, healthy subjects, fed (high-fat breakfast)
[14] = both, human, plasma, po, geometric mean (geometric %CV), ertugliflozin 7.5-mg/metformin 1000-mg FDC tablet, single oral dose, healthy subjects, fasted
[15] = both, human, plasma, po, geometric mean (geometric %CV), ertugliflozin 7.5-mg/metformin 1000-mg FDC tablet, single oral dose, healthy subjects, fed (high-fat breakfast)
[16] = ertugliflozin 7.5-mg/metformin 1000-mg FDC tablet
[17] = ertugliflozin 15-mg tablet, adjusted geometric mean ratio fed:fasted

SMILES: CCOc1ccc(Cc2cc([C@]34OC[C@](CO)(O3)[C@@H](O)[C@H](O)[C@H]4O)ccc2Cl)cc1 [Ertugliflozin]
Maximum tolerated dose [1]: has not been identified
Decrease of Cmax in the fed state compared with the fasted state ([2]; administered as ertugliflozin/sitagliptin FDC, based on adjusted GMR): 30%
AUC(0-inf) [2, 10]: 1170 ng·h/mL
AUC(0-inf) [2, 11]: 1110 ng·h/mL
AUC(0-t) [2, 10]: 1150 ng·h/mL
AUC(0-t) [2, 11]: 1090 ng·h/mL
Cmax ([2]; both, human, po, Cmax, geometric mean (geometric %CV), fasted): 223 ng/mL
Cmax ([2]; both, human, po, Cmax, geometric mean (geometric %CV), fed (high-fat breakfast)): 157 ng/mL
Tmax [2, 12]: 2 h
half-life [2, 12]: 11.6 ± 2.3 h
Fed:Fasted GMR (90% CI) AUCinf [2]: 94.6 (91.6–97.8) %
Fed:Fasted GMR (90% CI) Cmax [2]: 70.5 (63.3–78.4) %
Biopharmaceutical Classification System (BCS) class [3]: class I
Decrease of Cmax in the fed state compared with the fasted state ([4]; administered as ertugliflozin/metformin FDC, based on adjusted GMR): 41%
AUC(0-inf) [4, 13]: 621 ± 168 ng·h/mL
AUC(0-inf) [4, 14]: 655 ng·h/mL
AUC(0-inf) [4, 15]: 602 ng·h/mL
AUC(0-t) [4, 13]: 606 ± 166 ng·h/mL
AUC(0-t) [4, 14]: 640 ng·h/mL
AUC(0-t) [4, 15]: 587 ng·h/mL
Cmax [4, 13]: 82.3 ± 40.7 ng/mL
Cmax [4, 14]: 126 ng/mL
Cmax [4, 15]: 75.3 ng/mL
half-life ([4]; both, human, plasma, po, t1/2, arithmetic mean ± SD, ertugliflozin 7.5-mg/metformin 1000-mg FDC tablet, single oral dose, healthy subjects, fed (high-fat breakfast)): 11.2 ± 4.5 h
Fed:Fasted GMR (90% CI) AUCinf [4, 16]: 93.8 (90.1–97.7) %
Fed:Fasted GMR (90% CI) Cmax [4, 16]: 59.4 (51.1–69.1) %
Decrease of Cmax in the fed state compared with the fasted state ([5]; administered as monotherapy (15-mg tablet), based on adjusted GMR): 29%
half-life ([5]; both, human, plasma, po, 15 mg): 11.5 ± 2.6 h
AUC(0-inf) ([5]; both, human, plasma, po, 15 mg, AUCinf, geometric mean (geometric %CV), ertugliflozin 15-mg tablet, single oral dose, healthy subjects, fasted): 1330 ng·h/mL
AUC(0-t) ([5]; both, human, plasma, po, 15 mg, geometric mean (geometric %CV), ertugliflozin 15-mg tablet, single oral dose, healthy subjects, fasted): 1310 ng·h/mL
AUC(0-t) ([5]; both, human, plasma, po, 15 mg, geometric mean (geometric %CV), ertugliflozin 15-mg tablet, single oral dose, healthy subjects, fed (high-fat breakfast)): 1220 ng·h/mL
Cmax ([5]; both, human, plasma, po, 15 mg, Cmax, geometric mean (geometric %CV), ertugliflozin 15-mg tablet, single oral dose, healthy subjects, fasted): 271 ng/mL
Fed:Fasted GMR (90% CI) AUCinf [5, 17]: 91.7 (88.0–95.4) %
Fed:Fasted GMR (90% CI) Cmax [5, 17]: 70.7 (61.7–80.9) %
Delay of median Tmax, fed compared with fasted ([6]; in all 3 studies): 1 h
Reduction of Cmax, fed compared with fasted ([6]; range across the 3 studies): 29%–41%
Dose proportionality of exposure ([7]; dose range of 0.5 to 300 mg): dose proportional
median Tmax ([7]; phase 1 studies, oral administration, fasted conditions): 0.5 to 1.5 h
terminal elimination half-life (t1/2) ([7]; phase 1 studies): 11 to 17 h

Delay of Tmax, fed versus fasted ([4]; administered as ertugliflozin/metformin FDC tablet): 1.7 h
Tmax ([4]; both, human, plasma, po): 2.3 h
Cmax [4, 13]: 1520 ± 417 ng/mL
Cmax [4, 14]: 2040 ng/mL
Cmax [4, 15]: 1460 ng/mL
Fed:Fasted GMR (90% CI) AUCinf [4, 16]: 92.8 (85.1–101.3) %
Fed:Fasted GMR (90% CI) Cmax [4, 16]: 70.7 (63.6–78.5) %
Tmax, median (range) ([4]; ertugliflozin 7.5-mg/metformin 1000-mg FDC tablet, single oral dose, healthy subjects, plasma, fed (high-fat breakfast)): 4.0 (0.5–8.0) h
SMILES: CN(C)C(=N)N=C(N)N [Metformin]
Increase in Tmax, fed versus fasted [8]: approximately 35 minute
Lower AUC, fed versus fasted [8]: 25%
Lower mean Cmax, fed versus fasted [8]: 40%

AUC(0-inf) [2, 11]: 7.1 µM·h
AUC(0-t) [2, 10]: 7.3 µM·h
Tmax [2, 12]: 1.8 h
half-life [2, 12]: 12.1 ± 1.6 h
Fed:Fasted GMR (90% CI) AUCinf [2]: 96.6 (94.0–99.4) %
Fed:Fasted GMR (90% CI) Cmax [2]: 96.1 (82.4–112.1) %
Cmax ([2]; read-out: Cmax, geometric mean (geometric %CV), fed (high-fat breakfast), 1.00 ng/mL = 2.46 nM): 721 nM
SMILES: N[C@@H](CC(=O)N1CCn2c(nnc2C(F)(F)F)C1)Cc1cc(F)c(F)cc1F [Sitagliptin]
fed:fasted GMR for Cmax ([9]; 90% CI 86%–103%): 94%
fed:fasted GMR for AUCinf ([9]; 90% CI 97%–111%): 103%
